From patent US11986471B2, “Compounds and methods of use” (Tango Therapeutics, Inc., priority 2018, dated 2024) come the findings set out here.

Bounds are passed on as bounds.

For test [1], the target named is T1, PRMT5 (Homo sapiens, UniProt O14744).
T1 construct: purchased Viva (custom protein)
The test can be described thus: PRMT5 IC50 assay with no cofactor. The test is classed as biochemical. In a few lines:
(§1)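 Enzyme: human PRMT5. Conditions: plus SAM, plus MTA, or cofactor-free. Output: IC50 (μM); Ki via IC50/1.5 (SAM) or IC50/13.5 (MTA).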

Another test has as its system HAP1 MTAP-deleted. The experiment in a line: SDMA in-cell western assay, HAP1 MTAP-deleted cell line. The class given is cell-based. The note with it: for IC50: Homo sapiens, HAP1 MTAP-deleted cell line; for MTAP Intact/Deleted Ratio: IC50 ratio HAP1 MTAP-intact / HAP1 MTAP-deleted. An outline of the steps:
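Readout is cellular SDMA signal by in-cell western, with IC50 values derived from it. The cells are MTAP-null HAP1, matched to an isogenic MTAP-intact HAP1 line.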

The test system of another test is HAP1 MTAP-intact. The experiment in a line: SDMA in-cell western assay, HAP1 MTAP-intact cell line. The test is classed as cell-based. The following applies: Homo sapiens. In a few lines:
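IC50 values come from SDMA in-cell western staining of HAP1 cells. The MTAP-intact line carries endogenous MTAP, while its MTAP-deleted counterpart lacks MTAP entirely. A selectivity ratio of at least 3 fold marks a compound as MTAP-selective.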

The target in test [2] is T1, PRMT5. The test can be described thus: PRMT5 IC50 assay in the presence of SAM as cofactor. The test is classed as biochemical. An outline of the steps: as §1
Test [3] has as its target T1, PRMT5. The test can be described thus: PRMT5 IC50 assay in the presence of MTA as cofactor. The test is classed as biochemical. The following applies: for IC50: PRMT5, MTA as cofactor; for SAM/MTA Ratio: ratio between the Ki in the presence of SAM and the Ki in the presence of MTA. In a few lines: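 Potency against PRMT5 is compared across cofactor states, where IC50 equals Ki×1.5 with SAM present and Ki×13.5 with MTA present.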

T1 sequence (O14744 whole entry): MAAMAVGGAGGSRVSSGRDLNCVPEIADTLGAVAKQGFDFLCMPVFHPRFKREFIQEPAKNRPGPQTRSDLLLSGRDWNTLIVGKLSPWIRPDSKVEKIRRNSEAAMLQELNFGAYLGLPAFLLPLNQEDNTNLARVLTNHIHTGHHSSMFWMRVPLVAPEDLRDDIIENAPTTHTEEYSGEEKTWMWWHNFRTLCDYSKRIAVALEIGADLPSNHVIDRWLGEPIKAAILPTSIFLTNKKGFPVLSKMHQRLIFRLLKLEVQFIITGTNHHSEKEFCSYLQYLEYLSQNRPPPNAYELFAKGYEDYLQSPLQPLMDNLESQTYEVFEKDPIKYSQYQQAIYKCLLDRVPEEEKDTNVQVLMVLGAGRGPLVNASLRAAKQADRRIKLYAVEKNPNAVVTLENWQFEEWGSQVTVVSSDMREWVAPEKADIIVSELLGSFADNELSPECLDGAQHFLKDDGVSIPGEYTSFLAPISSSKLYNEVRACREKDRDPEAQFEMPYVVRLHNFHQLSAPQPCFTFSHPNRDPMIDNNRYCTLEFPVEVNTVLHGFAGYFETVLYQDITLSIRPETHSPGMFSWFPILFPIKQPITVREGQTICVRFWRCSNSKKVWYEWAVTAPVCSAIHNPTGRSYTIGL
T1 sequence (Q9BQA1 whole entry partner): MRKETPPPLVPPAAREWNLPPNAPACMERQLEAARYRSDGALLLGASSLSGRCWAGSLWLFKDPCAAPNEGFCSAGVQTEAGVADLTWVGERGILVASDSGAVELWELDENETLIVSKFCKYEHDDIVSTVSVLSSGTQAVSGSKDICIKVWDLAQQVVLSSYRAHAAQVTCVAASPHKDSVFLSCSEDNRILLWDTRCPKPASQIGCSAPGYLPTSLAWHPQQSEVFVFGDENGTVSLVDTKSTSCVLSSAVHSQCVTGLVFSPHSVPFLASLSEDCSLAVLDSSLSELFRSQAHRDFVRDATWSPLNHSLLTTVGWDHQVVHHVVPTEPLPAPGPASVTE

One may read the IC50 as the concentration at which inhibition is half-maximal. As to `CCC(=O)N1CCC(Nc2cc(C(=O)NC[C@H](O)CN3CCc4c(ccc(OCc5cnco5)c4C)C3)ccn2)CC1` [Compound 496, (S)—N-(2-hydroxy-3-(5-methyl-6-(oxazol-5-ylmethoxy)-3N-dihydroisoquinolin-2(1H)-yl)propyl)-2-((1-propionylpiperidin-4-yl)amino)isonicotinamide], the IC50 against PRMT5 [1] was 0.5 to 5 µM; in the test with HAP1 MTAP-deleted, 1 to 10 µM; with HAP1 MTAP-intact, ≥ 10 µM; on PRMT5 [2], 0.05 to 0.5 µM; at PRMT5 [3], 0.05 to 0.5 µM. Further, in the test with HAP1 MTAP-deleted, the “MTAP Intact/Deleted Ratio” value was “B* (an IC50 ratio greater than or equal to 3 fold but lower than 10 fold between the IC50 in the HAP1 MTAP-intact cell line and the HAP1 MTAP-deleted cell line)”. Besides, the “SAM/MTA Ratio” value on PRMT5 [3] is “A (a Ki ratio greater than or equal to 10 fold between the Ki in the presence of SAM and the Ki in the presence of MTA)”.

For `CC(=O)N1CCN(c2cc(C(=O)NC[C@H](O)CN3CCc4cc(OCc5cnco5)ccc4C3)cc(NC3CCC3)n2)CC1` [Compound 497, (S)-2-(4-acetylpiperazin-1-yl)-6-(cyclobutylamino)-N-(2-hydroxy-3-(6-(oxazol-5-ylmethoxy)-3N-dihydroisoquinolin-2(1H)-yl)propyl)isonicotinamide], the IC50 on PRMT5 [1] was 0.5 to 5 µM; with HAP1 MTAP-deleted, < 1 µM; in the test with HAP1 MTAP-intact, 1 to 10 µM; at PRMT5 [2] it was 0.05 to 0.5 µM; on PRMT5 [3] it was 0.05 to 0.5 µM. For the same molecule, the “MTAP Intact/Deleted Ratio” value in the test on HAP1 MTAP-deleted was “C* (an IC50 ratio of less than 3 fold between the IC50 in the HAP1 MTAP-intact cell line and the HAP1 MTAP-deleted cell line)”. In addition, the “SAM/MTA Ratio” value on PRMT5 [3] was “A (a Ki ratio greater than or equal to 10 fold between the Ki in the presence of SAM and the Ki in the presence of MTA)”.

With `COc1ccc(C(=O)N2CCc3cc(C(=O)NC[C@H](O)CN4CCc5cc(OCc6ocnc6C)ccc5C4)ccc3C2)cc1` [Compound 498, (S)—N-(2-hydroxy-3-(6-((4-methyloxazol-5-yl)methoxy)-3,4-dihydroisoquinolin-2(1H)-yl)propyl)-2-(4-methoxybenzoyl)-1,2,3,4-tetrahydroisoquinoline-6-carboxamide], the IC50 on PRMT5 [1] was 0.5 to 5 µM; in the test with HAP1 MTAP-deleted, < 1 µM; in the test on HAP1 MTAP-intact, 1 to 10 µM; on PRMT5 [2], 0.05 to 0.5 µM; at PRMT5 [3] it was 0.05 to 0.5 µM. Also, in the test on HAP1 MTAP-deleted, the “MTAP Intact/Deleted Ratio” value was “B* (an IC50 ratio greater than or equal to 3 fold but lower than 10 fold between the IC50 in the HAP1 MTAP-intact cell line and the HAP1 MTAP-deleted cell line)”. Besides, the “SAM/MTA Ratio” value on PRMT5 [3] is “A (a Ki ratio greater than or equal to 10 fold between the Ki in the presence of SAM and the Ki in the presence of MTA)”.

Consider `CC(=O)N1CCN(c2nc(NC3COC3)cc(C(=O)NC[C@H](O)CN3CCc4c(ccc(OCc5ocnc5C)c4C)C3)n2)CC1` [Compound 499, 2-(4-acetylpiperazin-1-yl)-N-[(2S)-2-hydroxy-3-{5-methyl-6-[(4-methyl-1,3-oxazol-5-yl)methoxy]-1,2,3,4-tetrahydroisoquinolin-2-yl}propyl]-6-[(oxetan-3-yl)amino]pyrimidine-4-carboxamide], for which the IC50 at PRMT5 [1] is ≥ 5 µM; in the test with HAP1 MTAP-deleted, ≥ 10 µM; with HAP1 MTAP-intact it was ≥ 10 µM; at PRMT5 [2], 0.5 to 5 µM; at PRMT5 [3], 0.05 to 0.5 µM. Moreover, the “MTAP Intact/Deleted Ratio” value in the test with HAP1 MTAP-deleted was “C* (an IC50 ratio of less than 3 fold between the IC50 in the HAP1 MTAP-intact cell line and the HAP1 MTAP-deleted cell line)”. Further, the “SAM/MTA Ratio” value on PRMT5 [3] was “A (a Ki ratio greater than or equal to 10 fold between the Ki in the presence of SAM and the Ki in the presence of MTA)”.
